For 28 compounds, IC50 results are on record in patent US20140163226A1, “NOVEL PYRIMIDINE DERIVATIVE AND PHARMACEUTICAL COMPOSITION INCLUDING SAME AS AN ACTIVE INGREDIENT” (HANMI PHARMACEUTICAL CO., LTD., priority 2011, published 2014).

The target in the assay is T1, DGAT1 (Homo sapiens, UniProt O75907).
T1 construct: host or cells: HepG2 cell homogenate (supernatant after sonication and 2000×g centrifugation)
T1 sequence (O75907 1-488): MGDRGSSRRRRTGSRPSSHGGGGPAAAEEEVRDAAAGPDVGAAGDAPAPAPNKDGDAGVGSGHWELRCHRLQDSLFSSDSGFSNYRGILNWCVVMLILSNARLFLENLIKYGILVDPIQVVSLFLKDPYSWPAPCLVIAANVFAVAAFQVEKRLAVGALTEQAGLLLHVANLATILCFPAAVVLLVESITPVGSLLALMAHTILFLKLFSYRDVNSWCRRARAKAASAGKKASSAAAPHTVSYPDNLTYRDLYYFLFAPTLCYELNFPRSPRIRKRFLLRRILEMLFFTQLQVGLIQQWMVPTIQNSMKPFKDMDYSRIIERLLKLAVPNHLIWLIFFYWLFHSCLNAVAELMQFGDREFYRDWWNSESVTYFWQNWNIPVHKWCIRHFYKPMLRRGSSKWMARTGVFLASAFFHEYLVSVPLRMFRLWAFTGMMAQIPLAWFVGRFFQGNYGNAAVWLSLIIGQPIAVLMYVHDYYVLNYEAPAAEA
As to the kind of experiment: Assay for inhibition of DGAT1 activity (IC50), in vitro enzymatic assay using homogenates of HepG2 cell line. Type of assay: biochemical. As to conditions: inhibitory activity against DGAT1; HepG2 protein (25 μg), 1,2-dioleoyl-sn-glycerol (30 μM), 14C oleoyl coenzyme A (10 μM), room temperature, 60 mins. As for the experimental part:
In order to identify DGAT1 inhibitors, in vitro enzymatic assays were performed by using homogenates of HepG2 cell line (ATCC, USA, HB-8065). Briefly stated, HepG2 cells were inoculated in 10% FBS-supplemented medium at 1.0×10^7 cells/well, cultured at 37° C., and harvested 72 hrs later. The harvested cells were lysed by ultrasonic treatment, and centrifuged for at 4° C. (2000×g, 10 mins) to remove any uncracked cells and impurities. The supernatant thus formed was obtained, and stored at −70° C. after its protein contents were quantitatively analyzed.
DGAT1 activation was assayed by a modification of the method described by Coleman (Methods in Enzymology, 1992, 209, 98-102). The compound of the present invention ([…]) was incubated with HepG2 protein (25 μg), MgCl2 (150 mM) and 1,2-dioleoyl-sn-glycerol (30 μM) in a total assay volume of 200 μL in plastic tubes.
The reaction was started by adding ^14C oleoyl coenzyme A (10 μM final concentration) and incubated at room temperature for 60 mins. The reaction was ended when a mixed solution (300 μL) of 2-propanol and heptane (7:1) was added thereto. Radioactive triolein product was separated into the organic phase by adding heptane (200 μL) and 1.0 M carbonate buffer (200 μL, pH 9.5). DGAT1 activity was quantified by counting aliquots of the upper heptane layer by liquid […].

Where only a bound is given, the exact number is not on record here.

As usually defined, the IC50 is the concentration that gives 50% inhibition. In turn, `O=C(Nc1ccc(-c2ncnc3c(-c4ccc(C(=O)O)cc4)csc23)cc1)Nc1cccc(Cl)c1` [Example 3, 4-(4-(4-(3-(3-chlorophenyl)ureido)phenyl)thieno[3,2-d]pyrimidin-7-yl)benzoic acid] displayed an IC50 of less than 1 nM. Turning to `O=C(O)CCc1ccc(-c2csc3c(-c4ccc(NC(=O)Nc5cccc(Cl)c5)cc4)ncnc23)cc1F` [Example 30, 3-(4-(4-(4-(3-(3-chlorophenyl)ureido)phenyl)thieno[3,2-d]pyrimidin-7-yl)-2-fluorophenyl)propanoic acid], the 50% inhibitory concentration (IC50) is less than 1 nM. Under `O=C(O)Cc1ccc(-c2csc3c(-c4ccc(NC(=O)NC5CCCCC5)cc4)ncnc23)cc1` [Example 16, 2-(4-(4-(4-(3-cyclohexylureido)phenyl)thieno[3,2-d]pyrimidin-7-yl)phenyl)acetic acid] stands less than 1 nM. Under `CS(=O)(=O)c1ccc(-c2csc3c(-c4ccc(NC(=O)Nc5cccc(Cl)c5)cc4)ncnc23)cc1` [Example 31, 1-(3-chlorophenyl)-3-(4-(7-(4-(methylsulfon)phenyl)thieno[3,2-d]pyrimidin-4-yl)phenyl)urea] stands less than 10 nM. The compound `COc1ccccc1NC(=O)Nc1ccc(-c2ncnc3c(-c4ccc(CCC(=O)O)cc4)csc23)cc1` [Example 20, 3-(4-(4-(4-(3-(2-methoxyphenyl)ureido)phenyl)thieno[3,2-d]pyrimidin-7-yl)phenyl)propanoic acid] gave a concentration for half-maximal inhibition (IC50) of less than 5 nM. `O=C(O)CCc1ccc(-c2csc3c(-c4ccc(NC(=O)Nc5ccc(-c6nn[nH]n6)cc5)cc4)ncnc23)cc1` [Example 49, 3-(4-(4-(4-(3-(4-(2H-tetrazol-5-yl)phenyl)ureido)phenyl)thieno[3,2-d]pyrimidin-7-yl)phenyl)propanoic acid] yielded a half-inhibitory concentration (IC50) of less than 1 nM.

`COc1ccc(NC(=O)Nc2ccc(-c3ncnc4c(-c5ccc(CCC(=O)O)cc5)csc34)cc2)cc1` [Example 15, 3-(4-(4-(4-(3-(4-methoxyphenyl)ureido)phenyl)thieno[3,2-d]pyrimidin-7-yl)phenyl)propanoic acid] registered an IC50 of less than 5 nM.

`CN1CCC(NC(=O)Nc2ccc(-c3ncnc4c(-c5ccc(CCC(=O)O)cc5)csc34)cc2)CC1` [Example 51, 3-(4-(4-(4-(3-(1-methylpiperidin-4-yl)ureido)phenyl)thieno[3,2-d]pyrimidin-7-yl)phenyl)propanoic acid] registered an IC50 of less than 1 nM. Under `CN(C)c1ccc(NC(=O)Nc2ccc(-c3ncnc4c(-c5ccc(CC(=O)O)cc5)csc34)cc2)cc1` [Example 35, 2-(4-(4-(4-(3-(4-(dimethylamino)phenyl)ureido)phenyl)thieno[3,2-d]pyrimidin-7-yl)phenyl)acetic acid] stands less than 10 nM; under `Cn1cc(-c2ccc(CCC(=O)O)cc2)c2ncnc(-c3ccc(NC(=O)Nc4ccccc4Cl)cc3)c21` [Example 57], less than 50 nM; under `O=C(O)CCc1ccc(-c2csc3c(-c4ccc(NC(=O)Nc5ccc(F)c(F)c5)cc4)ncnc23)cc1` [Example 14, 3-(4-(4-(4-(3-(3,4-difluorophenyl)ureido)phenyl)thieno[3,2-d]pyrimidin-7-yl)phenyl)propanoic acid], less than 5 nM.

On to `O=C(O)Cc1ccc(-c2csc3c(-c4ccc(NC(=O)Nc5ccccc5)cc4)ncnc23)cc1` [Example 1, 2-(4-(4-(4-(3-phenylureido)phenyl)thieno[3,2-d]pyrimidin-7-yl)phenyl)acetic acid], for which the IC50 is less than 5 nM. For the compound `COc1ccc(Cl)c(NC(=O)Nc2ccc(-c3ncnc4c(-c5ccc(CCC(=O)O)cc5)csc34)cc2)c1` [Example 46, 3-(4-(4-(4-(3-(2-chloro-5-methoxyphenyl)ureido)phenyl)thieno[3,2-d]pyrimidin-7-yl)phenyl)propanoic acid], the IC50 was less than 5 nM. `O=C(O)CCc1ccc(-c2csc3c(-c4ccc(NC(=O)Nc5cccc(Cl)c5)cc4)ncnc23)cc1` [Example 7, 3-(4-(4-(4-(3-(3-chlorophenyl)ureido)phenyl)thieno[3,2-d]pyrimidin-7-yl)phenyl)propanoic acid] yielded an IC50 of less than 1 nM. Under `O=C(O)Cc1ccc(-c2csc3c(-c4ccc(Nc5nc6ccccc6s5)cc4)ncnc23)cc1` [Example 61, 2-(4-(4-(4-(benzo[d]thiazol-2-ylamino)phenyl)thieno[3,2-d]pyrimidin-7-yl)phenyl)acetic acid] stands less than 5 nM; under `O=C(O)Cc1ccc(-c2csc3c(-c4ccc(NC(=O)Nc5ccc(F)c(F)c5)cc4)ncnc23)cc1` [Example 4, 2-(4-(4-(4-(3-(3,4-difluorophenyl)ureido)phenyl)thieno[3,2-d]pyrimidin-7-yl)phenyl)acetic acid], less than 1 nM; under `O=C(O)Cc1ccc(-c2csc3c(-c4ccc(NC(=O)Nc5ccnc(Cl)c5)cc4)ncnc23)cc1` [Example 34, 2-(4-(4-(4-(3-(2-chloropyridin-4-yl)ureido)phenyl)thieno[3,2-d]pyrimidin-7-yl)phenyl)acetic acid], less than 10 nM. `CC(C)(C(=O)O)c1ccc(-c2csc3c(-c4ccc(NC(=O)Nc5cccc(Cl)c5)cc4)ncnc23)cc1` [Example 59, 2-(4-(4-(4-(3-(3-chlorophenyl)ureido)phenyl)thieno[3,2-d]pyrimidin-7-yl)phenyl)-2-methylpropanoic acid] registered a half-maximal inhibitory concentration (IC50) of less than 1 nM. Take `CN1CCN(c2ccc(NC(=O)Nc3ccc(-c4ncnc5c(-c6ccc(CCC(=O)O)cc6)csc45)cc3)cc2)CC1` [Example 50, 3-(4-(4-(4-(3-(4-(4-methylpiperazin-1-yl)phenyl)ureido)phenyl)thieno[3,2-d]pyrimidin-7-yl)phenyl)propanoic acid]: the 50% inhibitory concentration (IC50) is less than 20 nM. `O=C(O)CCc1ccc(-c2csc3c(-c4ccc(NC(=O)Nc5cccc(F)c5)cc4)ncnc23)cc1` [Example 39, 3-(4-(4-(4-(3-(3-fluorophenyl)ureido)phenyl)thieno[3,2-d]pyrimidin-7-yl)phenyl)propanoic acid] displayed an IC50 of less than 1 nM.

`CN(C)c1ccc(NC(=O)Nc2ccc(-c3ncnc4c(-c5ccc(CCC(=O)O)cc5)csc34)cc2)cc1` [Example 40, 3-(4-(4-(4-(3-(4-(dimethylamino)phenyl)ureido)phenyl)thieno[3,2-d]pyrimidin-7-yl)phenyl)propanoic acid]: the IC50 was less than 1 nM. For `Cc1ccc(NC(=O)Nc2ccc(-c3ncnc4c(-c5ccc(CCC(=O)O)cc5)csc34)cc2)cc1` [Example 21, 3-(4-(4-(4-(3-p-tolylureido)phenyl)thieno[3,2-d]pyrimidin-7-yl)phenyl)propanoic acid], the IC50 was less than 1 nM. Consider `O=C(O)CCc1ccc(-c2csc3c(-c4ccc(NC(=O)Nc5ccc(N6CCCC6)cc5)cc4)ncnc23)cc1` [Example 52, 3-(4-(4-(4-(3-(4-(pyrrolidin-1-yl)phenyl)ureido)phenyl)thieno[3,2-d]pyrimidin-7-yl)phenyl)propanoic acid], for which the IC50 is less than 1 nM.

Take `O=C(O)CCc1ccc(-c2csc3c(-c4ccc(NC(=O)Nc5cccc(C(F)(F)F)c5F)cc4)ncnc23)cc1` [Example 55, 3-(4-(4-(4-(3-(2-fluoro-3-(trifluoromethyl)phenyl)ureido)phenyl)thieno[3,2-d]pyrimidin-7-yl)phenyl)propanoic acid]: the concentration for half-maximal inhibition (IC50) was less than 5 nM. With `O=C(O)CCc1ccc(-c2csc3c(-c4ccc(NC(=O)Nc5ccc(-n6cnnc6)cc5)cc4)ncnc23)cc1` [Example 53, 3-(4-(4-(4-(3-(4-(4H-1,2,4-triazol-4-yl)phenyl)ureido)phenyl)thieno[3,2-d]pyrimidin-7-yl)phenyl)propanoic acid], the IC50 is less than 50 nM.

Turning to `O=C(O)Cc1ccc(-c2csc3c(-c4ccc(NC(=O)Nc5cccc(Cl)c5)cc4)ncnc23)cc1` [Example 2, 2-(4-(4-(4-(3-(3-chlorophenyl)ureido)phenyl)thieno[3,2-d]pyrimidin-7-yl)phenyl)acetic acid], the IC50 was less than 1 nM.

`O=C(O)CCc1ccc(-c2csc3c(-c4ccc(NC(=O)Nc5cc(Cl)ccn5)cc4)ncnc23)cc1` [Example 42, 3-(4-(4-(4-(3-(4-chloropyridin-2-yl)ureido)phenyl)thieno[3,2-d]pyrimidin-7-yl)phenyl)propanoic acid] returned a concentration for half-maximal inhibition (IC50) of less than 5 nM.

`O=C(O)CCc1ccc(-c2csc3c(-c4ccc(NC(=O)Nc5ccc(N6CCOCC6)cc5)cc4)ncnc23)cc1` [Example 44, 3-(4-(4-(4-(3-(4-morpholinophenyl)ureido)phenyl)thieno[3,2-d]pyrimidin-7-yl)phenyl)propanoic acid] displayed a concentration for half-maximal inhibition (IC50) of less than 10 nM.
